Reference: PubChem BioAssay AID330 (DTP/NCI, 2004)
Several values for one entry are separate records, joined by “and”; a condition that tells them apart may be missing. Equal values may be shown once. Toxic doses and inconclusive results are not listed. Rule for the calls: active = survival T/C of 150% or more; inactive = T/C below 125% in these data. Bridge positions count the residues as written; N and C are the ends. Peptide text beside a SMILES is read from it. I, II: the chains in the order shown.

Test system: P388 leukemia ip, CD2F1 mice, survival T/C
Assay: NCI In Vivo Anticancer Drug Screen. Data for tumor model P388 Leukemia (intraperitoneal) in CD2F1 (CDF1) mice
Conditions: endpoint: median survival time, higher = longer survival
Method in brief: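 Mice carrying the transplanted tumor received test compound or vehicle. Survival was recorded in each group, and the value is the treated-group measurement divided by that of the vehicle-treated control group.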

[1] = dose: 50.0 mg/kg/injection, schedule: Q01DX005 (ip), vehicle: saline with Tween-80
[2] = dose: 100.0 mg/kg/injection, schedule: Q01DX005 (ip), vehicle: saline with Tween-80
[3] = dose: 200.0 mg/kg/injection, schedule: Q01DX005 (ip), vehicle: saline with Tween-80
[4] = dose: 100.0 mg/kg/injection, schedule: Q01DX009 (ip), vehicle: saline with Tween-80
[5] = dose: 200.0 mg/kg/injection, schedule: Q01DX009 (ip), vehicle: saline with Tween-80
[6] = dose: 50.0 mg/kg/injection, schedule: Q01DX005 (ip), vehicle: Klucel (hydroxypropylcellulose) (HPC)
[7] = dose: 100.0 mg/kg/injection, schedule: Q01DX005 (ip), vehicle: Klucel (hydroxypropylcellulose) (HPC)
[8] = dose: 200.0 mg/kg/injection, schedule: Q01DX005 (ip), vehicle: Klucel (hydroxypropylcellulose) (HPC)

Measured: T/C

CCOC(=O)c1c(-c2ccccc2)nn2c1COC(=O)C2
inactive: [1] 103 % of control | [2] 99 % of control | [3] 98 % of control

O=C(NC1CCCCC1C1CCC(Cl)CC1)c1ccccc1 (centres undefined)
inactive: [1] 89 % of control | [2] 87 % of control | [3] 87 % of control

O=C1NC(=O)C(c2ccccc2)(c2ccccc2)C2CC3c4[nH]c5ccccc5c4CCN3CC12 (centres undefined)
inactive: dose: 25.0 mg/kg/injection, schedule: Q01DX001 (ip), vehicle: saline 117 % of control | dose: 50.0 mg/kg/injection, schedule: Q01DX001 (ip), vehicle: saline 88 % of control | dose: 100.0 mg/kg/injection, schedule: Q01DX001 (ip), vehicle: saline 114 % of control and 90 % of control

COc1ccccc1N=C(C1=C(O)c2ccccc2C1=O)c1ccccc1
inactive: dose: 100.0 mg/kg/injection, schedule: Q04DX002 (ip), vehicle: saline with Tween-80 100 % of control | dose: 200.0 mg/kg/injection, schedule: Q04DX002 (ip), vehicle: saline with Tween-80 102 % of control | dose: 400.0 mg/kg/injection, schedule: Q04DX002 (ip), vehicle: saline with Tween-80 94 % of control

CCC(=O)NC(Cc1ccc(F)cc1)C(=O)O (centres undefined)
inactive: dose: 50.0 mg/kg/injection, schedule: Q01DX009 (ip), vehicle: saline 90 % of control | dose: 100.0 mg/kg/injection, schedule: Q01DX009 (ip), vehicle: saline 88 % of control | dose: 200.0 mg/kg/injection, schedule: Q01DX009 (ip), vehicle: saline 90 % of control

CSc1nc(N)nc2c1ncn2C1OC(CO)C(O)C1O (centres undefined)
inactive: [4] 90 % of control | dose: 100.0 mg/kg/injection, schedule: Q04DX003 (ip), vehicle: saline sonified 100 % of control | [5] 86 % of control | dose: 200.0 mg/kg/injection, schedule: Q04DX003 (ip), vehicle: saline sonified 100 % of control | dose: 400.0 mg/kg/injection, schedule: Q01DX009 (ip), vehicle: saline with Tween-80 100 % of control | dose: 400.0 mg/kg/injection, schedule: Q04DX003 (ip), vehicle: saline sonified 95 % of control

NC(CSSCC(N)C(=O)NC(Cc1ccccc1)C(=O)O)C(=O)NC(Cc1ccccc1)C(=O)O (stereo not drawn) (I: H-Cys-Phe-OH / II: H-Cys-Phe-OH; disulfide I:1-II:1; configuration not given here)
inactive: [6] 101 % of control | [7] 97 % of control | [8] 105 % of control

Cc1ccc2c(c1)P(=O)(c1ccccc1C(O)(C(F)(F)F)C(F)(F)F)c1cc(C)ccc1O2
inactive: dose: 100.0 mg/kg/injection, schedule: Q04DX002 (ip), vehicle: Klucel (hydroxypropylcellulose) (HPC) 101 % of control | dose: 200.0 mg/kg/injection, schedule: Q04DX002 (ip), vehicle: Klucel (hydroxypropylcellulose) (HPC) 94 % of control | dose: 400.0 mg/kg/injection, schedule: Q04DX002 (ip), vehicle: Klucel (hydroxypropylcellulose) (HPC) 90 % of control

CSc1cccc(NC(=O)N2CCCCC2C)c1 (centres undefined)
inactive: dose: 50.0 mg/kg/injection, schedule: Q01DX009 (ip), vehicle: saline with Tween-80 100 % of control | [4] 92 % of control | [5] 100 % of control

CN(CCC(C#N)c1ccccc1)Cc1ccccc1 (centres undefined)
inactive: [6] 92 % of control | [7] 101 % of control

CC(=O)N1C(=O)c2ccccc2NC1(C)c1ccncc1 (centres undefined)
inactive: dose: 25.0 mg/kg/injection, schedule: Q01DX005 (ip), vehicle: Klucel (hydroxypropylcellulose) (HPC) 100 % of control | [6] 101 % of control | [7] 107 % of control | [8] 106 % of control

COc1cccc2c1C(=O)c1c(O)c3c(c(O)c1C2=O)C[C@@](O)(c1csc(N)n1)C[C@@H]3OC1CC(N)C(O)C(C)O1 (some centres undefined)
inactive: dose: 6.25 mg/kg/injection, schedule: Q04DX003 (ip), vehicle: water 96 % of control | dose: 12.5 mg/kg/injection, schedule: Q04DX003 (ip), vehicle: water 105 % of control and 109 % of control | dose: 25.0 mg/kg/injection, schedule: Q04DX003 (ip), vehicle: water 118 % of control | dose: 100.0 mg/kg/injection, schedule: Q04DX003 (ip), vehicle: water 123 % of control
active: dose: 1.56 mg/kg/injection, schedule: Q01DX009 (ip), vehicle: water 150 % of control | dose: 6.25 mg/kg/injection, schedule: Q01DX009 (ip), vehicle: water 157 % of control and 160 % of control | dose: 12.5 mg/kg/injection, schedule: Q01DX009 (ip), vehicle: water 155 % of control and 163 % of control | dose: 25.0 mg/kg/injection, schedule: Q01DX009 (ip), vehicle: water 178 % of control
